Experimental findings from patent publication US20230365563A1, “QUINAZOLINE COMPOUND AND APPLICATION THEREOF” (SHANGHAI PHARMACEUTICALS HOLDING CO., LTD., priority 2020, published 2023) are described below.

Counter-ions that a name gives are not always drawn.

For one test, the target named is T1, KRAS_WT and SOS1 (Homo sapiens, UniProt P01116).
T1 construct: purchased
Description: Inhibition of KRAS_WT/SOS1 binding (Cisbio binding kit, 665/615 ratio), Effect Embodiment C. The note with it: read-out: GTP-KRAS-WT:SOS1 IC50. The gist of the method:
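Compounds tested as 3-fold, 11-point dilutions in duplicate at 1% DMSO final against the KRAS_WT/SOS1 binding system. IC50 derived by nonlinear regression fit.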

Another test deals with T2, KRAS-G12D and SOS1 (Homo sapiens, UniProt P01116, G12D).
T2 construct: purchased
Description: Inhibition of KRAS-G12D/SOS1 binding (Cisbio binding kit, 665/615 ratio), Effect Embodiment A. The note with it: read-out: GTP-KRAS-G12D:SOS1 IC50. The gist of the method:
(§1)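 Compounds underwent 3-fold dilution from their storage solutions (11 points), were transferred to assay wells in duplicate with DMSO held at 1% final, and were briefly centrifuged.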

In another test the target is T3, KRAS_G12D and cRAF (Homo sapiens, UniProt P01116, G12D).
T3 construct: purchased
Description: Inhibition of KRAS_G12D/cRAF binding (Cisbio binding kit, 665/615 ratio), Effect Embodiment B. The note with it: read-out: GTP-KRAS-G12D:CRAF IC50. The method in brief: as §1

T2 sequence (P01116 1-188 isoform P01116-2 G12D): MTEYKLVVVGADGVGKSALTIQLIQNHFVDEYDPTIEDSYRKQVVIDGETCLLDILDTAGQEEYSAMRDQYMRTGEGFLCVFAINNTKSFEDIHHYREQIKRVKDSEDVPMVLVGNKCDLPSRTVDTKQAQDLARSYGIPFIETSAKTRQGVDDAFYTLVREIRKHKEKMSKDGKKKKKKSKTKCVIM
T3 sequence (P01116 1-188 isoform P01116-2 G12D): as above
T1 sequence (P01116 1-188 isoform P01116-2): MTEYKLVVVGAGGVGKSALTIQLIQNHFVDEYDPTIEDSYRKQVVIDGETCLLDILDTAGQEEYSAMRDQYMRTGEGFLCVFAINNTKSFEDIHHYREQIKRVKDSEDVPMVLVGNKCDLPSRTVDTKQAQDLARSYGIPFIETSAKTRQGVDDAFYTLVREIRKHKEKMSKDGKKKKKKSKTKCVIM

As a reminder, the IC50 is the midpoint of a concentration-inhibition curve. Consider `Oc1cc(-c2c(Cl)cc3c(N4CC5CCC(C4)N5)nc(OCCCN4C5CCC4COC5)nc3c2F)c2ccccc2c1` (single isomer, unassigned) [Compound 106, (4S or R)-4-(2-(3-(3-oxa-8-azabicyclo[3.2.1]octan-8-yl)propoxy)-4-((1R,5S)-3,8-diazabicyclo[3.2.1]octan-3-yl)-6-chloro-8-fluoroquinazolin-7-yl)naphthalen-2-ol dihydrochloride], for which the half-inhibitory concentration (IC50) at KRAS_WT and SOS1 stood at 1770 nM; at KRAS-G12D and SOS1 it was 39.1 nM; at KRAS_G12D and cRAF it was 158 nM.

As to `Oc1cc(-c2c(Cl)cc3c(N4CC5CCC(C4)N5)nc(OCC(F)(F)CN4CCCC4)nc3c2F)c2ccccc2c1` (single isomer, unassigned) [Compound 107, 4-((S or R)-4-((1R,5S)-3,8-diazabicyclo[3.2.1]octan-3-yl)-6-chloro-2-(2,2-difluoro-3-(pyrrolidin-1-yl)propoxy)-8-fluoroquinazolin-7-yl)naphthalen-2-ol dihydrochloride], the IC50 is 3490 nM at KRAS_WT and SOS1; 47 nM on KRAS-G12D and SOS1; 160 nM on KRAS_G12D and cRAF.

For the compound `C[C@@H]1CCCN1CCCOc1nc(N2CC3CCC(C2)N3)c2cc(Cl)c(-c3cc(O)cc4ccccc34)c(F)c2n1` (single isomer, unassigned) [Compound 108a, 4-((S or R)-4-((1R,5S)-3,8-diazabicyclo[3.2.1]octan-3-yl)-6-chloro-8-fluoro-2-(3-((R)-2-methylpyrrolidin-1-yl)propoxy)quinazolin-7-yl)naphthalen-2-ol dihydrochloride], the half-maximal inhibitory concentration (IC50) at KRAS_WT and SOS1 stood at 2300 nM; at KRAS-G12D and SOS1, 56.3 nM; at KRAS_G12D and cRAF, 212 nM.

On to `Oc1cc(-c2c(Cl)cc3c(N4CC5CCC(C4)N5)nc(OCC(F)CN4CCCC4)nc3c2F)c2ccccc2c1` (single isomer, unassigned) [Compound 109a, 4-((S or R)-4-((1R,5S)-3,8-diazabicyclo[3.2.1]octan-3-yl)-6-chloro-8-fluoro-2-((S or R)-2-fluoro-3-(pyrrolidin-1-yl)propoxy)quinazolin-7-yl)naphthalen-2-ol hydrochloride], for which the IC50 on KRAS_WT and SOS1 is 2570 nM; on KRAS-G12D and SOS1 it was 27 nM; at KRAS_G12D and cRAF it was 89.3 nM.

For `Oc1cc(-c2c(Cl)cc3c(N4CC5CCC(C4)N5)nc(OCC(F)CN4CCCC4)nc3c2F)c2ccccc2c1` (single isomer, unassigned) [Compound 109b, 4-((S or R)-4-((1R,5S)-3,8-diazabicyclo[3.2.1]octan-3-yl)-6-chloro-8-fluoro-2-((R or S)-2-fluoro-3-(pyrrolidin-1-yl)propoxy)quinazolin-7-yl)naphthalen-2-ol hydrochloride], the 50% inhibitory concentration (IC50) at KRAS_WT and SOS1 was 5350 nM; on KRAS-G12D and SOS1 it was 58.2 nM; on KRAS_G12D and cRAF it was 208 nM.

`CN1CC(C)(COc2nc(N3CC4CCC(C3)N4)c3cc(Cl)c(-c4cc(O)cc5ccccc45)c(F)c3n2)C1` (single isomer, unassigned) [Compound 110, 4-((S or R)-4-((1R,5S)-3,8-diazacyclo[3.2.1]octan-3-yl)-6-chloro-2-((1,3-dimethylnonanetriacyl)methoxy)-8-fluoroquinazin-7-yl)naphthalen-2-ol ditrifluoroacetate]: the IC50 at KRAS_WT and SOS1 came to 1530 nM; at KRAS-G12D and SOS1 it was 39.6 nM; at KRAS_G12D and cRAF, 143 nM.

Consider `CN(CCCCN1CCN(CCCCN)CC1)CCCOc1nc(N2CC3CCC(C2)N3)c2cc(Cl)c(-c3cc(O)cc4ccccc34)c(F)c2n1` (single isomer, unassigned) [Compound 111, (S or R) 4-(2-(3-((4-(4-aminobutyl)piperazin-1-yl)butyl)(methyl)amino)propoxy)-4-((1R,5S)-3,8-diazabicyclo[3.2.1]octan-3-yl)-6-chloro-8-fluoroquinazolin-7-yl)naphthalen-2-ol pentahydrochloride], for which the half-maximal inhibitory concentration (IC50) is 1110 nM at KRAS_WT and SOS1; 22.4 nM at KRAS-G12D and SOS1; 107 nM at KRAS_G12D and cRAF.

For `CN1CCC1CCOc1nc(N2CC3CCC(C2)N3)c2cc(Cl)c(-c3cc(O)cc4ccccc34)c(F)c2n1` (single isomer, unassigned) [Compound 112a, 4-((S or R)-4-((1R,5S)-3,8-diazabicyclo[3.2.1]octan-3-yl)-6-chloro-8-fluoro-2-(2-((S or R)-1-methylazetidin-2-yl)ethoxy)quinazolin-7-yl)naphthalen-2-ol dicarboxylate], the 50% inhibitory concentration (IC50) at KRAS_WT and SOS1 was 2520 nM; at KRAS-G12D and SOS1, 57.4 nM; on KRAS_G12D and cRAF, 119 nM.

Take `CCCCN(C)CCCOc1nc(N2CC3CCC(C2)N3)c2cc(Cl)c(-c3cc(O)cc4ccccc34)c(F)c2n1` (single isomer, unassigned) [Compound 113, 4-((S or R)-4-((1R,5S)-3,8-diazabicyclo[3.2.1]octan-3-yl)-2-(3-(butyl(methyl)amino)propoxy)-6-chloro-8-fluoroquinazolin-7-yl)naphthalen-2-ol hydrochloride]: the IC50 is 4000 nM on KRAS_WT and SOS1; 51.8 nM on KRAS-G12D and SOS1; 130 nM at KRAS_G12D and cRAF.

Turning to `Oc1cc(-c2c(Cl)cc3c(N4CC5CCC(C4)N5)nc(OCCN4CCCCC4)nc3c2F)c2ccccc2c1` (single isomer, unassigned) [Compound 114, 4-((S or R)-4-((1R,5S)-3,8-diazabicyclo[3.2.1]octan-3-yl)-6-chloro-8-fluoro-2-(2-(piperidin-1-yl)ethoxy)quinazolin-7-yl)naphthalen-2-ol dihydrochloride], the half-inhibitory concentration (IC50) on KRAS_WT and SOS1 was determined as 4530 nM; at KRAS-G12D and SOS1 it was 37.2 nM; on KRAS_G12D and cRAF, 100 nM.

For `CC(C)CN(C)CCCOc1nc(N2C[C@H]3CC[C@@H](C2)N3)c2cc(Cl)c(-c3cc(O)cc4ccccc34)c(F)c2n1` (single isomer, unassigned) [Compound 115, 4-((S or R)-4-((1R,5S)-3,8-diazacyclo[3.2.1]octan-3-yl)-6-chloro-8-fluoro-2-(3-(isobutyl(methyl)amino)propoxy)quinazolin-7-yl)naphthalen-2-ol dihydrochloride], the IC50 at KRAS_WT and SOS1 came out at 4130 nM; at KRAS-G12D and SOS1, 67.8 nM; at KRAS_G12D and cRAF, 130 nM.

Consider `Oc1cc(-c2c(Cl)cc3c(N4CC5CCC(C4)N5)nc(OCCN4CCCC4)nc3c2F)c2ccccc2c1` (single isomer, unassigned) [Compound 116, 4-((S or R)-4-((1R,5S)-3,8-diazabicyclo[3.2.1]octan-3-yl)-6-chloro-8-fluoro-2-(2-(pyrrolidin-1-yl)ethoxy)quinazolin-7-yl)naphthalen-2-ol dihydrochloride], for which the IC50 on KRAS_WT and SOS1 is 3380 nM; on KRAS-G12D and SOS1, 65.7 nM; on KRAS_G12D and cRAF it was 189 nM.

In the case of `Oc1cc(-c2c(Cl)cc3c(N4CC5CCC(C4)N5)nc(OCCC4(N5CCCC5)CC4)nc3c2F)c2ccccc2c1` (single isomer, unassigned) [Compound 117, 4-((S or R)-4-((1R,5S)-3,8-diazabicyclo[3.2.1]octan-3-yl)-6-chloro-8-fluoro-2-(2-(1-(pyrrolidin-1-yl)cyclopropyl)ethoxy)quinazolin-7-yl)naphthalen-2-ol dihydrochloride], the half-inhibitory concentration (IC50) on KRAS_WT and SOS1 was determined as 2130 nM; on KRAS-G12D and SOS1, 59.3 nM; at KRAS_G12D and cRAF it was 134 nM.

Consider `CN(C)CC(C)(C)COc1nc(N2CC3CCC(C2)N3)c2cc(Cl)c(-c3cc(O)cc4ccccc34)c(F)c2n1` (single isomer, unassigned) [Compound 118, 4-((S or R)-4-((1R,5S)-3,8-diazabicyclo[3.2.1]octan-3-yl)-6-chloro-2-(3-(dimethylamino)-2,2-dimethylpropoxy)-8-fluoroquinazolin-7-yl)naphthalen-2-ol dihydrochloride], for which the IC50 on KRAS_WT and SOS1 stood at 2410 nM; on KRAS-G12D and SOS1, 19.5 nM; on KRAS_G12D and cRAF it was 53.7 nM.

For the compound `Oc1cc(-c2c(Cl)cc3c(N4CC5CCC(C4)N5)nc(OCC4(CN5C6CCC5COC6)CC4)nc3c2F)c2ccccc2c1` (single isomer, unassigned) [Compound 119, 4-((7S or R)-2-((1-((3-oxa-8-azabicyclo[3.2.1]octan-8-yl)methyl)cyclopropyl)methoxy)-4-((1R,5S)-3,8-diazabicyclo[3.2.1]octan-3-yl)-6-chloro-8-fluoroquinazolin-7-yl)naphthalen-2-ol formate], the IC50 on KRAS_WT and SOS1 was 160 nM; at KRAS-G12D and SOS1 it was 14.5 nM; at KRAS_G12D and cRAF, 14.4 nM.

`CC(C)(COc1nc(N2CC3CCC(C2)N3)c2cc(Cl)c(-c3cc(O)cc4ccccc34)c(F)c2n1)CN1C2CCC1COC2` (single isomer, unassigned) [Compound 120, 4-((7S or R)-2-(3-(3-oxa-8-azabicyclo[3.2.1]octan-8-yl)-2,2-dimethylpropoxy)-4-((1R,5S)-3,8-diazabicyclo[3.2.1]octan-3-yl)-6-chloro-8-fluoroquinazolin-7-yl)naphthalen-2-ol dihydrochloride]: the 50% inhibitory concentration (IC50) on KRAS_WT and SOS1 worked out at 2670 nM; at KRAS-G12D and SOS1 it was 36.5 nM; at KRAS_G12D and cRAF it was 72.7 nM.

As to `Oc1cc(-c2c(Cl)cc3c(N4CC5CCC(C4)N5)nc(OCCN4C5CCC4COC5)nc3c2F)c2ccccc2c1` (single isomer, unassigned) [Compound 124, 4-((7S or R)-2-(2-(3-oxa-8-azabicyclo[3.2.1]octan-8-yl)-ethoxy)-4-((1R,5S)-3,8-diazabicyclo[3.2.1]octan-3-yl)-6-chloro-8-fluoroquinazolin-7-yl)naphthalen-2-ol dihydrochloride], the concentration for half-maximal inhibition (IC50) on KRAS_WT and SOS1 was 2890 nM; on KRAS-G12D and SOS1, 75.8 nM; on KRAS_G12D and cRAF, 149 nM.
